Reference: patent US12636272B2, “Method and composition for inhibiting virus infection” (ARJIL BIOTECH HOLDING COMPANY LIMITED, priority 2020, dated 2026)
Where “and” joins values, the source holds several entries; their conditions need not be identical. Equal entries are not always repeated.

Experiments:
[1] = test system: HuS-E/2 cells; assay: Cell viability of HuS-E/2 cells (MTT assay); format: cell-based; settings: 0-1000 μg/ml AR100-DS1 for 48 h
[2] = test system: HBV; assay: HBV DNA level in the culture medium of HepG2.2.15 cells (real-time PCR); format: cell-based, Hepatitis B virus (HBV)
Excerpt: (§1) Continuous HBV proliferation can be achieved in HepG2.2.15 cells (RRID:CVCL_L855) stably transfected with the HBV genome of the adw2 subtype. HepG2.2.15 cells are used because of the unlimited supply and constant quality and were maintained in Dulbecco's modified Eagle medium (DMEM; Invitrogen) supplemented with 10% heat-inactivated fetal bovine serum (FBS; Thermo) plus 100 units of penicillin and […] of streptomycin per ml (both from Invitrogen).
The culture medium from drug-treated HepG2.2.15 cells is clarified by centrifugation at 1,000× g at 4° C. for 10 min, and then the supernatant is layered on top of a 20% sucrose cushion (20% sucrose, 20 mM HEPES, pH 7:4, 0.1% bovine serum albumin [BSA]) and centrifuged at 197,000× g for 3 h at 4° C. to pellet the HBV particles, which are then concentrated 100 fold to detect HBV DNA.
Total DNA is extracted with a Genomic DNA isolation kit (Nexttee Biotechnologie, Germany). Total RNA is isolated from cultured cells using TRIzol® reagent (Invitrogen). […] The results are analyzed with the iCycler iQ real-time PCR detection system (Bio-Rad). […]
(§2) To test whether AR100-DS1 had any effect on HBV genome replication, assembly, or secretion, HepG2.2.15 cells that were stably transfected with HBV genome, were used to incubate with AR 100-DS1 for 48 hours, then HBsAg and HBV DNA collected from medium were measured by ELISA and real-time PCR.

[3] = test system: HBV; assay: HBV infectivity/entry in HuS-E/2 cells (HBsAg ELISA, HBV mRNA real-time PCR); format: cell-based, Hepatitis B virus (HBV)
[4] = test system: HBV; assay: HBsAg secretion of HepG2.2.15 cells (ELISA); format: cell-based, Hepatitis B virus (HBV)
Excerpt: as §1, §2

[5] = test system: HepG2.2.15 cells; assay: Cell viability of HepG2.2.15 cells; format: cell-based
[6] = test system: SARS-COV-2 (NTU13); assay: Plaque reduction assay in Vero E6 cells; format: cell-based; settings: 1 μM RDV*
[7] = HuS-E/2 cells, 0, 5 and 10 of AR100-DS1 during infection for 18 h, then 48 hours

SMILES | cell viability [1] | HBV DNA level in medium ([2]; 20 μg/ml AR100-DS1, 48 hours) | HBV DNA level in medium ([2]; 40 μg/ml AR100-DS1, 48 hours) | entry of HBV in HuS-E/2 cells ([3]; HuS-E/2 cells) | HBV mRNA expression level [3, 7] | secretion of HBsAg in the medium [3, 7] | secretion of HBsAg ([4]; 0, 20 and 40 μg/ml AR100-DS1, HepG2.2.15 cells (FIG. 1C)) | secretion of HBsAg reduced to ([4]; 10 μg/ml AR100-DS1, 48 hours, HepG2.2.15 cells) | secretion of HBsAg reduced to ([4]; 20 μg/ml AR100-DS1, 48 hours, HepG2.2.15 cells (FIGS. 1A and 1B)) | secretion of HBsAg reduced to ([4]; 50 μg/ml AR100-DS1, 48 hours, HepG2.2.15 cells) | cell viability [5] | Inhibition (%) to DMSO mean [6] | Inhibition (%) to virus mean [6] | Plaque number per well mean [6]
C=C1C(=O)O[C@H]2/C=C(\C)CC3C=C(CC/C=C(\C)CC[C@H]12)C(=O)O3 (some centres unmarked) [AR100-DS1] | marked dose-dependent reduction in cell viability | significantly reduced | significantly reduced | could not prevent HBV entering into HuS-E/2 cells | neither secretion of HBsAg in the medium nor HBV mRNA expression level showed dose-dependent reduction | neither secretion of HBsAg in the medium nor HBV mRNA expression level showed dose-dependent reduction | significantly inhibited | 75.25% | 69.77% and 63.00% | 56.78% | marked dose-dependent reduction in cell viability |  |  | 
CCC(CC)COC(=O)[C@H](C)N[P@](=O)(OC[C@H]1O[C@@](C#N)(c2ccc3c(N)ncnn23)[C@H](O)[C@@H]1O)Oc1ccccc1 [RDV, remdesivir] |  |  |  |  |  |  |  |  |  |  |  | 80% | 82% | 32
